Patent publication US9884891B2, “KISS1R receptor agonist compounds and use thereof for inducing ovulation in mammals” (INSTITUT NATIONAL DE LA RECHERCHE AGRONOMIQUE, priority 2013, dated 2018)
Read-outs that look alike come from different tables or passages of the source. Values belong to the compound of their own block, whether it stands above or below them. Where a SMILES comes first, the peptide text is derived from it.

Tests used:
plasma LH concentration = assay: In vivo activity test: plasma LH concentration in ewes after injection of the peptide compound; design: species or system ewes of the Ile de France breed; settings: for increase in the plasma concentration of LH (% of Comp.1 maximum stimulation): FIG. 4
Method: The tests were carried out on ewes of the Ile de France breed, either in the anestrus period for the comparative compounds Comp.1 and Comp.3, or in the estrus period for the comparative compound Comp.1 and for the compounds in accordance with the invention C1, C4 and C6. The ewes used in the estrus period were pretreated with a vaginal sponge containing 20 mg of fluorogestone acetate (Chronogest CR sponge, Intervet) in order to block the secretion of LH and to stimulate a luteal phase.
Five days after the insertion of the sponge (for the animals in the estrus period) or the day before the test (for the animals in the anestrus period), a catheter was inserted into the jugular vein of the animal. On the day of the test, the peptide compound to be tested was injected into the catheter, at the desired dose (5 nmol/ewe), diluted in 1 ml of physiological solution. Physiological saline containing heparin (3 ml) was injected immediately after the peptide compound in order to rinse the catheter and to carry all of the compound into the animal's bloodstream.
A negative control (T) consisting of physiological solution alone was also carried out.
Before and following the injection of the test compound, blood samples were taken at variable intervals between 10 min and 1 h, for a period of between 3 h and 30 h.
The blood samples were centrifuged, and the plasma was stored at −20° C. until it was used to measure the LH concentration, according to an RIA method described in the literature (Caraty et al., 2007).
The tests were carried out on ewes of the Ile de France breed in the anestrus period, in the same way as above with reference to the 1st experiment (without any treatment with progesterone). In particular, for all the animals, the day before the test, a catheter was inserted into the jugular vein of the animal. On the day of the test, the peptide compound to be tested was injected into the catheter, at the desired dose (5 nmol/ewe), diluted in 1 ml of physiological solution.
The tests were carried out on ewes of the Ile de France breed in the anestrus period, as indicated above with reference to the 1st experiment (without any treatment with progesterone). In particular, for all the animals, the day before the test, a catheter was inserted into the jugular vein of the animal. On the day of the test, the peptide compound to be tested was injected into the catheter, at the desired dose, diluted in 1 ml of physiological solution. For each compound, the following three doses were tested: 1 nmol/ewe, 5 nmol/ewe and 15 nmol/ewe. […]
Before and following the injection of the test compound, blood samples were taken at variable intervals between 10 min and 1 h, for a period of 10 h.
The blood samples were centrifuged, and the plasma was stored at −20° C. until it was used to measure the LH concentration, according to the RIA method described in the literature (Caraty et al., 2007).

[1] = Test for proteolytic degradation of the peptide compounds in ovine serum; type: in vitro ADME, ewes of the Ile de France breed; settings: for remaining at 3 h, 50 μM: female, Ile de France, sheep
Method: In order to carry out this test, blood was collected from the jugular vein of ewes of the Ile de France breed, and centrifuged. The supernatant (serum) was stored at −20° C. until use.
The degradation in this serum of the various peptide compounds in accordance with the invention and of the comparative peptide compounds is monitored over time. To this effect, each peptide compound to be analyzed and the internal calibrant (L-phenylalaninol) are dissolved in milliQ water (0.5 mM and 6.6 mM, respectively). The commercial protease inhibitor cocktail (Sigma, ref. P8340) is supplied in solution in DMSO.
The serum and the stock solutions of peptide compounds are preheated at 39° C. for 30 minutes. Each solution of peptide compound (50 μl, i.e. a final concentration in the serum of 50 μM) and the solution of internal calibrant (25 μl) are mixed with 425 μl of serum and incubated at 39° C. The proteolytic degradation kinetics of the compounds are monitored by taking a sample, at various given times, of 75 μl of the solution, which are diluted with 150 μL of acetonitrile in order to precipitate the serum proteins. The suspension obtained is centrifuged at 14 000 revolutions/min for 10 min at 4° C.
The amount of peptide compound intact after incubation is determined by integration of the area of the peak, using L-phenylalaninol as internal calibrant. It is expressed as % of the area of the peak at time t=0.
The value corresponding to 100% of intact peptide compound is obtained by mixing 420 μl of serum, 5 μl of the inhibitor cocktail and 25 μl of the phenylalaninol solution, followed by 50 μl of peptide compound, and then by immediately treating the resulting solution according to the protocol described above.

human KISS1R receptor = target: T1, human KISS1R receptor (Homo sapiens, UniProt Q969F8); assay: Intracellular calcium mobilization test in HEK293A cells expressing human KISS1R; type: cell-based
T1 construct: expressed in transfected cells
Excerpt: In order to carry out the in vitro tests for the activity of the peptide compounds in accordance with the invention and the comparative compounds, the HEK293A cell line (ATCC, American Type Culture Collection, Manassas, Va., USA) was stably transfected with the human KISS1R receptor (Genbank accession number: NM_032551). The pcDNA3.1 vector (Invitrogen, Cergy Pontoise, France), into which the sequence of human KISS1R has been inserted with a 5′ HA tag at position 957-2150 bp, was used for the transfection. The transfection and the selection of the clones were carried out as described in the literature (Mancini et al. 2009, and Invitrogen website).
In order to verify the agonist activity and to measure the EC50 of the peptide compounds according to the invention, the following protocol was carried out.
HEK293A cells expressing the human KISS1R receptor were seeded into a 96-well plate (μClear® black plate) at the concentration of 40 000 cells/well, and placed in an incubator at 37° C. After 48 hours, the medium was changed and the cells were incubated with the fluorescent dye Fluo-4NW, according to the instructions of the manufacturer (Molecular Probe).
After having measured the basal fluorescence, 5 μl of the 20× solution containing the test compound were added to each well (containing 95 μl) so as to obtain the desired concentration. The variations in fluorescence were recorded every 7 seconds for 5-7 minutes with a plate reader (PolarStar Optima, BMG Labtech). Activity-concentration curves were generated using the GraphPad Prism 5 software, and the EC50 of each compound was calculated by adjusting the curve to a sigmoid.

LH peak / ovulation = settings: cited from earlier work
[2] = 1st experiment, ewes in the estrus period, 5 nmol/ewe intravenous
[3] = 2nd experiment, ewes in the anestrus period, 5 nmol/ewe intravenous, FIGS. 6a-6d
[4] = intravenous, ewes at the end of the follicular phase

T1 sequence (Q969F8 whole entry): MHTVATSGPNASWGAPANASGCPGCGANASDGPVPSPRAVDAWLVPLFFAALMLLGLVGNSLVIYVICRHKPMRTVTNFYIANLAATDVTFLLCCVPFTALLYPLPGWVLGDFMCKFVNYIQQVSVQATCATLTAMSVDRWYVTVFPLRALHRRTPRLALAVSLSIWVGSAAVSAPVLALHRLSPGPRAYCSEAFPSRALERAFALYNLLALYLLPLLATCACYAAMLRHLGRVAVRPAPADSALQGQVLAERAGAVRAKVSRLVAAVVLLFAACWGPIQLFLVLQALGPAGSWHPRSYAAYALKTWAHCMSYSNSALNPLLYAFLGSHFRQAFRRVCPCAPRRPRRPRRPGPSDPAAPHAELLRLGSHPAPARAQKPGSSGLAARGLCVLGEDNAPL

Compound: CC(C)C[C@@H](C(=O)N[C@@H](CCCNC(=N)N)C(=O)N[C@@H](Cc1ccc(O)cc1)C(N)=O)n1cc(CNC(=O)[C@H](Cc2ccccc2)NC(=O)[C@H](CO)NC(=O)[C@H](CC(N)=O)NC(=O)[C@H](Cc2c[nH]c3ccccc23)NC(=O)[C@H](CC(N)=O)NC(=O)[C@@H](N)Cc2ccc(O)cc2)nn1 [Compound C1, H-Tyr-Asn-Trp-Asn-Ser-Phe-GlyΨ[Tz]Leu-Arg-Tyr-NH2] (HELM PEPTIDE1{Y.N.W.N.S.F.[CC(C)C[C@@H](C(=O)[*:2])n1cc(CN[*:1])nn1].R.Y.[am]}$$$$V2.0)
increase in the plasma concentration of LH (% of Comp.1 maximum stimulation) (plasma LH concentration; [2]): more active than the comparative compounds Comp.1 and Comp.3
duration of action (LH concentration over time) (plasma LH concentration; [3]): sustained for longer over time than the comparative compounds Comp.1 and Comp.3

remaining at 3 h, 50 μM ([1]; serum): 46%
Compound: CC(=O)N[C@@H](Cc1ccc(O)cc1)C(=O)N[C@@H](CC(N)=O)C(=O)N[C@@H](Cc1c[nH]c2ccccc12)C(=O)N[C@@H](CC(N)=O)C(=O)N[C@@H](CO)C(=O)N[C@@H](Cc1ccccc1)C(=O)NCc1cn([C@@H](CC(C)C)C(=O)N[C@@H](CCCNC(=N)N)C(=O)N[C@@H](Cc2ccc(O)cc2)C(N)=O)nn1 [Compound C2, Ac-Tyr-Asn-Trp-Asn-Ser-Phe-GlyΨ[Tz]Leu-Arg-Tyr-NH2] (HELM PEPTIDE1{[ac].Y.N.W.N.S.F.[CC(C)C[C@@H](C(=O)[*:2])n1cc(CN[*:1])nn1].R.Y.[am]}$$$$V2.0)
lifetime in ovine serum (in words) [1]: clearly prolonged in comparison with that of the comparative peptide compound Comp.3
total increase in the plasma LH concentration (AUC) over 9 hours (plasma LH concentration; 2nd experiment, ewes in the anestrus period, 5 nmol/ewe intravenous, FIG. 7): significantly more active than the comparative compounds
duration of action (LH concentration over time) (plasma LH concentration; [3]): sustained for longer over time than the comparative compounds Comp.1 and Comp.3

remaining at 3 h, 50 μM ([1]; serum): 59%
Compound: CNC(=N)NCCC[C@H](NC(=O)[C@H](CC(C)C)n1cc(CNC(=O)[C@H](Cc2ccccc2)NC(=O)[C@H](CO)NC(=O)[C@H](CC(N)=O)NC(=O)[C@H](CCCCNC(C)=O)NC(=O)[C@H](CC(N)=O)NC(=O)[C@H](Cc2ccc(O)cc2)NC(C)=O)nn1)C(=O)N[C@@H](Cc1ccc(O)cc1)C(N)=O [Compound C4, Ac-Tyr-Asn-Lys(Ac)-Asn-Ser-Phe-GlyΨ[Tz]Leu-Arg(Me)-Tyr-NH2] (HELM PEPTIDE1{[ac].Y.N.K.N.S.F.[CC(C)C[C@@H](C(=O)[*:2])n1cc(CN[*:1])nn1].[CNC(=N)NCCC[C@H](N[*:1])C(=O)[*:2]].Y.[am]}|PEPTIDE2{[ac]}$PEPTIDE1,PEPTIDE2,4:R3-1:R2$$$V2.0)
increase in the plasma concentration of LH (% of Comp.1 maximum stimulation) (plasma LH concentration; [2]): more active than the comparative compounds Comp.1 and Comp.3

remaining at 3 h, 50 μM ([1]; serum): 50%
EC50 (human KISS1R receptor; HEK293A cells expressing human KISS1R, Fluo-4NW, read-out: EC50, intracellular calcium mobilization of cells expressing human KISS1R (Table 2)): 0.01 nM
Compound: CNC(=N)NCCC[C@H](NC(=O)[C@H](CC(C)C)n1cc(CNC(=O)[C@H](Cc2ccccc2)NC(=O)[C@@H](NC(=O)[C@H](CC(N)=O)NC(=O)[C@@H](Cc2c[nH]c3ccccc23)NC(=O)[C@@H](Cc2ccc(O)cc2)NC(C)=O)[C@@H](C)O)nn1)C(=O)N[C@@H](Cc1c[nH]c2ccccc12)C(N)=O [Compound C6, Ac-DTyr-DTrp-Asn-Thr-Phe-GlyΨ[Tz]Leu-Arg(Me)-Trp-NH2] (HELM PEPTIDE1{[ac].[dY].[dW].N.T.F.[CC(C)C[C@@H](C(=O)[*:2])n1cc(CN[*:1])nn1].[CNC(=N)NCCC[C@H](N[*:1])C(=O)[*:2]].W.[am]}$$$$V2.0)
increase in the plasma concentration of LH (% of Comp.1 maximum stimulation) (plasma LH concentration; [2]): more active than the comparative compounds Comp.1 and Comp.3

Compound: CCCCCCCCCCCCCCCC(=O)N[C@@H](CCC(=O)NCCCC[C@H](NC(=O)[C@H](Cc1ccc(O)cc1)NC(C)=O)C(=O)N[C@@H](Cc1c[nH]c2ccccc12)C(=O)N[C@@H](CC(N)=O)C(=O)N[C@@H](CO)C(=O)N[C@@H](Cc1ccccc1)C(=O)NCc1cn([C@@H](CC(C)C)C(=O)N[C@@H](CCCNC(=N)N)C(=O)N[C@@H](Cc2ccc(O)cc2)C(N)=O)nn1)C(=O)O [Compound C8, Ac-Tyr-Lys(γ-(N-hexadecanoyl-Glu-OH))-Trp-Asn-Ser-Phe-GlyΨ[Tz]Leu-Arg-Tyr-NH2] (HELM PEPTIDE1{[ac].Y.K.W.N.S.F.[CC(C)C[C@@H](C(=O)[*:2])n1cc(CN[*:1])nn1].R.Y.[am]}|PEPTIDE2{[CCCCCCCCCCCCCCCC(=O)[*:2]].[gGlu]}$PEPTIDE1,PEPTIDE2,3:R3-2:R2$$$V2.0)
duration of action (LH concentration over time) (plasma LH concentration; 3rd experiment, ewes in the anestrus period, 1, 5 and 15 nmol/ewe intravenous, FIGS. 8a, 8b): even further sustained over time, and very significantly, than the compound C2
LH secretion (AUC) (plasma LH concentration; 3rd experiment, ewes in the anestrus period, 1, 5 and 15 nmol/ewe intravenous, FIGS. 9a, 9b): even more active than the compound C2
LH secretion into the plasma after intramuscular injection (plasma LH concentration; 4th experiment, ewes in the estrus period, 15 nmol/ewe intramuscular versus intravenous, FIG. 10): also effective, in vivo, by intramuscular injection

Compound: Ac-YNWNSFGLRY-NH2 [Comp. 3, reference compound]
remaining at 3 h, 50 μM ([1]; ovine serum, 39° C., 50 μM, 3 h, % of the area of the HPLC peak at time t = 0, read-out: % of peptide intact after 3 h of incubation in the serum): 11%
human KISS1R-stimulating power (in words) (human KISS1R receptor; calcium mobilization, compared with Comp.1): more powerful than Comp.1 (mKP10) in vitro
efficiency and duration of the elevation of the plasma LH concentration (plasma LH concentration; 1st experiment, ewes in the anestrus period, 5 nmol/ewe intravenous, FIG. 3, versus Comp.1): only minimally increases

Compound: KP10: decapeptide kisspeptin-10, endogenous KISS1R ligand; species form not stated for the cited ewe studies
induction of an LH peak (LH peak / ovulation; [4]): capable of inducing an LH peak
synchronization of ovulations (LH peak / ovulation; [4]): synchronized to within one hour
time from LH peak to ovulations (LH peak / ovulation; [4]): 21 h
reactivation of the gonadotropic axis and ovulation (LH peak / ovulation; prolonged infusion, period of sexual rest (seasonal anestrus)): capable of reactivating the gonadotropic axis and inducing ovulation
